Data on 1 compound can be found in patent US20130136778A1, “PTEROSTILBENE (PTER) FOR USE IN THE PREVENTION AND/OR TREATMENT OF SKIN DISEASES, DAMAGES OR INJURIES” (GREEN MOLECULAR, S.L., priority 2009, published 2013).

Data set [1] concerns SKH-1 mice. Kind of data set: Thickness of the epidermis after acute UV-B exposure of 360 mJ/cm2. Format: in vivo. The protocol:
UVB Acute exposure protocols were used: Mice underwent a single exposure of 360 mJ/cm2. The study was conducted at 24 hours after exposure. This protocol was used to evaluate the photoprotective effect of the compounds studied. With the same acute-phase protocol mice from all groups were irradiated. Subsequently mice remained in the animal storage area for a week to see the evolution of the inflammatory response and edema. • 1. Edema formation: skinfold thickness was determined with a caliper 24 hours after the first exposure. • 2. Study of the thickness of the epidermis after exposure to acute irradiation (360 mj/cm^2 24 h hours and 7 days after irradiation). • 3. Histological studies: measuring, in the pictures obtained from histological sections, the thickness of the epidermis. For studies of acute exposure skin samples were taken from the back of the mouse. These samples were fixed with 4% paraformaldehyde (24 hours) and embedded in paraffin. Following cutting the samples were stained with hematoxylin and eosin. The two protocols of UV-B exposure used were: • Intense exposure after a single exposure of 360 mJ/cm^2. The study was carried out 24 hours after the exposure. This protocol was used to assess the photoprotective effects of the compounds studied. • Intense exposure after a single exposure of 360 mJ/cm^2. The study was carried out 1 week after the exposure. The mice were kept in the shed for a week to observe the evolution of the inflammatory and edematous response. At 24 hours or 1 week after the administration of the different treatments the mice were sacrificed and their skin fixed with 4% PFA. To measure the thickness of the epidermis to evaluate possible hyperplasia, a computer program was used, Image J, calibrated with the assistance of a Neubauer camera which allowed the measuring of the epidermis. Results obtained were statistically analyzed by ANOVA and contrasted by the Tukey test and grouped according to the significant differences. […] Therefore PTER alone could be used efficiently in the prevention of skin diseases, injuries or damages induced by ultraviolet B radiation. The evaluation of skin thickness was carried out by using computer software (IMAGE J). Results obtained by ANOVA were contrasted by the Tukey test and grouped according to the significant differences. […] Therefore PTER separately could be used efficiently in the prevention of skin diseases, damages or injuries induced by ultraviolet B radiation.

Data set [2] is described as follows: Absorption spectrum of polyphenols (mechanical filter capacity). Particulars: 1 mM in pure ethanol, 200-800 nm. Format: physicochemical. The method, then:
A solution of 1 mM of each polyphenol was prepared (PTER, Resveratrol and QUER) in absolute ethanol (HPLS quality; Quima) and the absorption spectrum was studied between 200 and 800 nm using a Multiskan Spectrum (ThermoScientific).
With the purpose of studying the capacity of the polyphenols used in this study, we decided to evaluate the absorption of light throughout the ultraviolet light spectrum as shown in FIG. 13.

Data set [3] relates to SKH-1 mice. Kind of data set: Experimental psoriasis induced by TPA. Format: in vivo.
Protocol: For the induction of psoriasis, the agent “12-O-tetradecanoylphorbol-13 acetate” (TPA) was used.
Since our objective was to assess the progress of the lesions caused by psoriasis in combination with the use of polyphenols, a model of continuous exposure and a weaker concentration of TPA were used, on a daily dose of 2 nmoles of TPA over a period of a week, which allowed us to observe the progress of the psoriasis.
The induction was performed with 2 nmol TPA/mouse on an area of 1 cm^2, applying 10 μL of the 200 μM solution in acetone. This application protocol was carried out taking into account that when applying 20 μL as stated in the model, the volume increased considerably and it lost its concentration, therefore it was decided to make it more concentrated.
As a standard treatment, Dexamethasone was used, (from Sigma Solution 25 mM in acetone). The administration of the standard treatment and the products to be tested were given 30 minutes prior to the application of TPA, both beginning on the same day.
The groups, of 6 mice, for this assessment were: • Not treated. • Reference compound: 0.5 μmoles of Dexamethasone (200 μL of one solution 25 mM in acetone). • Medium: 200 μl of vacuumed Liposomes. • Resveratrol: 200 μL of Resveratrol Liposomes (10 μmol in total). • PTER: 200 μL of PTER Liposomes (10 μmol in total). • QUER: 200 μL of QUER Liposomes (10 μmol in total). • PTER+QUER:: 200 μL of PTER Liposomes+QUER (10 μmol in total).
At 24 hours (day 7) after the last administration of the different treatments and TPA, 3 mice from each group were sacrificed and their skin fixed with 4% PFA. The remaining mice were kept under the treatment with no exposure to TPA, to verify if the skin recovered faster on the treatment than on its own. At 24 hours (day 9) after the last administration of the different treatments the rest of the mice were sacrificed and their skin fixed with 4% PFA.
The flaky aspect of the skin was quantified in a scale of 0-3, being 0, nothing; 1, mild; 2, moderate; 3, severe.
For the next data set, the system named is BALB/c mice. Kind of data set: Contact hypersensitivity induced by oxazolone (ear edema). Format: in vivo. As to conditions: FIG. 22; 1 μmol polyphenols, 20 mg diprosone; applied after oxazolone. The protocol: The edema was calculated as the difference between the thickness that was produced in the ears, before the outcomes of the reaction, and their thickness 24 hours later, and it was measured with a vernier caliper.
The change was expressed as the relative increase in relation to day 0.
The application of oxazolone after sensitization to the same substance produces a reaction of hypersensitivity by contact, which appears as an eczematous reaction, with infiltration of lymphocytes and macrophages, with edema of the epidermis.
The BALB/c mice are sensitized on day 0 through the application, on the shaved abdomen, of 100 μL of oxazolone at 1.5% in acetone (w/v). Prior to the induction for hypersensitization, the thickness of the ear was measured with the help of a vernier caliper (Mitutoyo micrometer). The reaction was caused on day 7 by applying 20 μL of 2.5% oxazolone in ethanol (10 μL to each side of the right ear).
As a control measure the left ear was used, to which 20 μL of ethanol was applied. And a standard treatment, Diprosone® cream was used: (Schering Plough B. V., Utrecht, The Netherlands), that contains 0.5 mg de betamethasone/g. […]

With `COc1cc(/C=C/c2ccc(O)cc2)cc(OC)c1` [PTER, 3,5-dimethoxy-4′-hydroxy-trans-resveratrol], in the data set with SKH-1 mice [1] (FIG. 2), the “thickness of the epidermis 24 hours after irradiation, applied after UVB” value is “more efficient in the treatment of skin diseases, injuries or damages caused by radiation, when applied after the exposure to UVB, than the commercial creams (Vichy, Heliocare and Isdin)”; the “thickness of the epidermis 24 hours after irradiation, applied before UVB” value was “more efficient as photoprotector, when applied before the exposure to UVB, than the commercial creams (Vichy, Heliocare and Isdin)”. Also, the “thickness of the epidermis 24 hours after irradiation (before or after application)” value in the data set on SKH-1 mice [1] (FIG. 2, versus group treated only with UV-B) was “produced better results than even commercial photoprotectors and Resveratrol”. Further, in the data set on SKH-1 mice [1] (FIG. 3), the “thickness of the epidermis 1 week after irradiation, applied after UVB” value is “more efficient in the treatment of skin diseases, injuries or damages caused by radiation, when applied after the exposure to UVB, than the commercial creams (Vichy, Heliocare and Isdin)”; the “thickness of the epidermis 1 week after irradiation, applied before UVB” value was “more efficient as photoprotector, when applied before the exposure to UVB, than the commercial creams (Vichy, Heliocare and Isdin)”. Moreover, in data set [2], the “absorption of light, range of maximum absorption” value is “peaks or maximum absorption in the range of Ultraviolet B”. The “index of excoriation or descaling (scale 0-3)” value in the data set with SKH-1 mice [3] (24 hours after 7 administrations of TPA) is “fewer indexes of excoriation or descaling”. Further, the “increase of skinfold throughout the procedure” value with SKH-1 mice [3] (FIG. 23, 6 consecutive days, treatment 30 min prior to 2 nmol TPA) is listed as “an important decrease in the increase of skinfolds”. The “increase in the skinfold 24 hours after the first administration of TPA” value in the data set with SKH-1 mice [3] (FIG. 24, treatment 30 min prior to 2 nmol TPA) is given as “significantly diminished the appearance of edema”. Further, the “skinfold after 3 administrations of TPA” value in the data set on SKH-1 mice [3] (FIG. 25) was “produce a diminishing effect on the inflammation produced by TPA”. The “histological analysis of the lesions” value in the data set on SKH-1 mice [3] (FIG. 28, hematoxylin-eosin, TPA daily over 7 days) was “no signs of papillomatosis, but there was acanthosis due to a massive proliferation”. Besides, in the data set with BALB/c mice, the “edema of the ear / inflammatory changes induced by oxazolone” value is on record as “could prevent inflammatory changes as a result of inflammation induced by oxazolone”.
